Source: US20060035946A1, “Amyloid-binding, metal-chelating agents” (The General Hospital Corporation, priority 2003, published 2006)

Legend:
[1] = tested on: cortical amyloid accumulation; settings: Tg2576 transgenic mouse model for Alzheimer's disease; R. A. Cherny et al., Neuron 2001; cited from earlier work
Aβ1-40 [2] = biological target: T1, Aβ1-40 (Homo sapiens, UniProt P05067); assay: Inhibition of Zn2+-induced aggregation of Aβ measured by turbidity; type: biochemical; settings: Aβ1-40 10 μM, Zn2+ 25 μM, compound 25 μM, pH 7.4; FIG. 8
T1 construct: Human Aβ peptides (Aβ1-40 and Aβ1-42) were synthesized; purchased W. M. Keck Foundation Biotechnology Resource Laboratory (Yale); Glabe Laboratory (UC Irvine); Multhaup Laboratory (Heidelberg); U.S. Peptide, Inc; Aldrich-Sigma; host or cells: chemical synthesis (solid-phase Fmoc)
Description: (§1) Human Aβ peptides (Aβ1-40 and Aβ1-42) were synthesized using solid-phase Fmoc chemistry at the W. M. Keck Foundation Biotechnology Resource Laboratory (Yale University, New Haven, Conn.); Glabe Laboratory (University of California, Irvine, Calif.); or Multhaup Laboratory (University of Heidelberg, Germany); or purchased from U.S. Peptide, Inc. (Rancho Cucamonga, Calif.); or Aldrich-Sigma (St. Louis, Mo.). The syntheses were confirmed by purification by reverse-phase HPLC, amino acid sequencing, and mass spectrometry. Synthetic Aβ peptides were dissolved in trifluoroethanol (30% in Milli-Q water (Millipore Corporation, Milford, Mass.)) or 20 mM HEPES (pH 8.5) at a concentration of […], centrifuged for 20 minutes at 10,000×g and the supernatant (stock Aβ) used for subsequent assays on the day of the experiment.
Turbidity measurements were performed as previously described (X. Huang et al., J. Biol. Chem. 1997, 272: 26464-26470). […] Subsequently, 20 μL aliquots of 10 mM of the bifunctional molecule to be tested or 10 mM Zn^2+ were added to the mixture alternatively, and following a 2 min. delay, a further four readings were taken at 1 min. intervals. After the final addition of the bifunctional molecule and turbidity reading, the mixtures were incubated for an additional 30 minutes before taking the last readings. […]

Aβ1-40 [3] = biological target: T1, Aβ1-40; assay: MRI signals from spherical phantoms in the presence of Aβ1-40; type: binding; settings: PBS pH 7.4, FIG. 11
Description: as §1
(§2) Different solution mixtures (containing a contrast imaging agent, Gd-XH1 or Gd-DTPA, in the presence or absence of Aβ1-40, Aβ1-42 or HSA in PBS, pH 7.4) were injected into 4.5-mL hollow spheres (made of polypropylene) and subjected to a 3-T magnetic scanner (Simens). Spin-Echo scanning mode was used and T1 signals were measured for each solution using 12 TR values (TE=5 ms), with R1=1/T1, and R1(obs)=R1(O)+R1 (Gd-XH1-Aβ1-40 or -Aβ1-42).

HSA = HSA (Homo sapiens, UniProt P02768); assay: MRI signals from spherical phantoms in the presence of HSA; type: binding; settings: PBS pH 7.4, FIG. 11
Experimental: as §2

[4] = tested on: human SH-SY5Y neuroblastoma cells; assay: Neurotoxicity in neuroblastoma cells (LDH release assay); type: cell-based; settings: XH1 0, 1, 5 or 10 μM, 48 hours after treatment; FIG. 9B
Experimental: The neurotoxicity of XH1 was also tested on human SH-SY5Y neuroblastoma cells. The SH-SY5Y cell line is commonly used to study neuritogenesis, differentiation, and tumorigenesis (D. Vu et al., Brain Res. Mol. Brain Res. 2003, 115: 93-103). SH-SY5Y cells were obtained from American Type Culture Collection and grown in Dulbecco's modified Eagle's medium supplemented with 10% fetal bovine serum (Gibco-BRL) and antibiotics.
Human SH-SY5Y neuroblastoma cells were incubated in the presence of XH1 (0, 1, 5 or 10 μM) (95% […], 5% CO2, 85% humidity, 37° C.) and cell viability was assessed 48 hours after treatment using the LDH release assay as described above.

β-tubulin = assay: Control protein expression by SDS-PAGE in SH-SY5Y cells; type: cell-based, human; settings: same conditions as APP, FIG. 10A
Experimental: (§3) In SH-SY5Y human neuroblastoma cells, the capacity of XH1 to suppress APP synthesis was measured by SDS-PAGE. Control proteins (β-tubulin and/or two amyloid-precursor-like proteins, APLP1 and APLP2) were used to ensure target suppression specificity of the inventive bifunctional molecule.
(§4) SDS-PAGE. SH-SY5Y human neutoblastoma cells were harvested and washed with cold PBS three times and then lysed with M-PER™ mammalian protein extraction reagent (Pierce) mixed with protease inhibitor cocktails (Roche). The cell lysate was […] for 15 minutes at 13,000 rpm in a cold room, and the supernatants were BCA assayed for total protein concentrations. Protein blotting was performed on pre-casted NuPAGE™ 4-12% Bis-Tris Gel (Invitrogen) with equal protein loading (15 μg/well). It was run at 200 V for 45 minutes and transferred at 75 mA/gel for 95 minutes. The blots were probed by primary and secondary antibodies according to manufacturer's instructions and finally washed for 2-3 hours at 15 min. intervals. The blots were then developed using a chemiluminescent kit (Pierce).

APLP2 = assay: Control protein synthesis by SDS-PAGE in SH-SY5Y cells; type: cell-based, human; settings: XH1 up to 10 μM, FIG. 10B
Experimental: as §3, §4

APLP1 = assay: as above; type: cell-based, human; settings: XH1 up to 10 μM, FIG. 10B
Experimental: as §3, §4

APP = assay: Determination of APP protein synthesis by SDS-PAGE in SH-SY5Y cells; type: cell-based, human; settings: increasing XH1 concentration, 48 hours, FIG. 10A
Experimental: as §3, §4

[5] = tested on: E17 rat cortical primary neurons; assay: Neurotoxicity in primary neuronal culture (LDH release and MTT assays); type: cell-based; settings: XH1 0, 1 or 10 μM, 48 hours after treatment; FIG. 9A
Description: A primary neuronal culture was used to test the neurotoxicity of the parent bifunctional molecule, XH1. E17 rat cortical primary neurons were obtained from pathogen-free female Sprague-Dawley rats (purchased from Taconic Farms, Mass.) after 17 days of gestation, as described by G. J. Brewer and C. W. Cotman (in Brain Res. 1989, 494: 65-74). The protocol used allowed long-term culture of neurons at low density under precisely defined culture conditions. This protocol provided up to 90% neuronal culture. It was desirable that a small population of glial cells be co-cultured with the rat cortical primary neurons as these cells support neuronal survival. Cytosine arabinoside (1 μM) was used to control the growth of glial cells in the culture preparation. The neuronal population was checked regularly using neuron-specific enolase (and/or astroglia-specific S100β) immunohistochemistry.
E17 rat cortical primary neurons were grown under 95% […], 5% CO2, 85% humidity conditions, at 37° C. for 4 days in serum-free Neurobasal™ medium with B-27 supplement (Life Technologies, Inc.), 20 μM L-glutamate, 100 units/mL penicillin, […] streptomycin, and 2 mM L-glutamine. On the 5th day (treatment day), the medium was replaced with serum-free Neurobasal™ medium plus L-glutamine without B-27 supplement. […]

T1 sequence (P05067 672-711 limits assumed): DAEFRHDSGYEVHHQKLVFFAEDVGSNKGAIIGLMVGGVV
Sequence of HSA (P02768 25-609): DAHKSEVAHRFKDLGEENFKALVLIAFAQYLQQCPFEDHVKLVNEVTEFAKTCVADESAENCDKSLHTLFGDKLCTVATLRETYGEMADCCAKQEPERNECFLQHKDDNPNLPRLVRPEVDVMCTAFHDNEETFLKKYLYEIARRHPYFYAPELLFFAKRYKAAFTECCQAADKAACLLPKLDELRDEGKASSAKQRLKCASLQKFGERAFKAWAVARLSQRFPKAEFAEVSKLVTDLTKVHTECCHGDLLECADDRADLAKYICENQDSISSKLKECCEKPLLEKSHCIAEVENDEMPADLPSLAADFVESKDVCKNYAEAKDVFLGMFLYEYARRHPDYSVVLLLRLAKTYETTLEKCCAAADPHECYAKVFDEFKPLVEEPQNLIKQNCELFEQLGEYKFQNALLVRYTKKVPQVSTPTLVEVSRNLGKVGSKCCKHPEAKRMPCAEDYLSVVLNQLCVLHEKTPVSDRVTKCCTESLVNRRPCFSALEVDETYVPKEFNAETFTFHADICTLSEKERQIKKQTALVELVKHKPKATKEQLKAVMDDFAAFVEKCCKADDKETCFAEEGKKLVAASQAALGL

Compound: Oc1c(I)cc(Cl)c2cccnc12 [Clioquinol]
- cortical amyloid accumulation [1]: marked inhibition

Compound: O=C(O)CN(CCN(CC(=O)O)CC(=O)O)CCN(CC(=O)O)CC(=O)O [DTPA, diethylene triaminepentaacetic acid, reference compound]
- Zn2+-induced aggregation of Aβ1-40 in solution (turbidity at 400 nm) (Aβ1-40 [2]): significantly decrease

Compound: O=C([O-])CN(CCN(CC(=O)[O-])CC(=O)O)CCN(CC(=O)[O-])CC(=O)O.[Gd+3] [Gd-DTPA]
- effect on MRI signal of combination with Aβ (Aβ1-40 [3]): No effects
- effect on MRI signal of combination with HSA (HSA): No effects

Compound: O=C(O)CN(CCN(CC(=O)O)CC(=O)Nc1ccc(-c2nc3ccccc3s2)cc1)CCN(CC(=O)O)CC(=O)Nc1ccc(-c2nc3ccccc3s2)cc1 [XH1]
- cell death (LDH release assay) [4]: does not cause any significant cell death
- β-tubulin expression (β-tubulin): no effects
- APLP2 synthesis (APLP2): did not affect
- APLP1 synthesis (APLP1): did not affect
- APP synthesis (APP): decrease in APP synthesis
- cell death (LDH release and MTT assays) [5]: does not induce any significant cell death
- Zn2+-induced aggregation of Aβ1-40 in solution (turbidity at 400 nm) (Aβ1-40 [2]): significantly decrease
